“Also recorded” adds a separate entry of the source. Like-named read-outs stand apart in the source and are kept apart here.

The test system of data set [1] is RT112 (MDR1, UGT1A1) cells. Particulars: for IC50 (50% inhibition of cell growth): RT112 (MDR1, UGT1A1), 3 days treatment. As to the method:
(§1) The human epithelial cervical cancer cell line KB 3-1 with two subclones (KB 3-1 (MDR1^+++) and KB 3-1 (MDR1^+++, CYP3A5)) and the bladder cancer cell line RT112, also with subclone (RT112 (MDR1^+, UGT1A1)), were cultured in Dulbecco's Modified Eagle Medium (DMEM) including 3.7 g/l NaHCO3, 4.5 g/l D-Glucose, 1.028 g/l N-Acetyl-L-Alanyl-L-glutamine and supplemented with 10% fetal bovine, 1 mM Na-pyruvate and 1% non-essential amino acids. The human colon cancer cell line LS174T was cultured in Dulbecco's modified Eagle medium containing L-glutamine, pyridoxine hydrochloride and 25 mM Hepes buffer without phenol red, supplemented with 10% fetal bovine, 1 mM Na-pyruvate and 1% non-essential amino acids. All cells were incubated at 37° C. with 5% CO2 in a humidified atmosphere.
(§2) Lower concentrated dilutions were prepared in PBS and cell culture medium.
(§3) Cells were seeded in 96-well culture plates 24 h prior to treatment. With respect to differential growth rates KB 3-1 and RT112 cells were seeded at 700 cells/well, RT112 (MDR1^+, UGT1A1) at 1000 cells/well and KB 3-1 (MDR1^+++) and KB 3-1 (MDR1^+++, CYP3A5) at 1200 cells/well. LS174T were seeded at 1.0×10^4 cells/well. […] Four well were treated with the same drug dilution. Cells were incubated for 3 days at 37° C. in a humidified 5% CO2 atmosphere.
(§4) A commercially available MTS assay system (Promega, Madison, USA) was used to determine growth inhibition and cell death according to the instructions of the manufacturer. Three days after adding the drugs, 20 μl of the combined MTS/PMS solution was added to each well of the 96-well culture plate. The plate was incubated for at least 45 min at 37° C. in a humidified 5% CO2 atmosphere and the absorbance at 492 nm was measured. The absorbance values of untreated control cells on each plate were set as 100% growth and used to calculate the remaining growth of drug treated cells. Untreated cells on the culture plates served as controls for unaffected growth and survival.
(§5) The drug concentration effecting a 50% inhibition of cell growth was defined as the IC50.

Data set [2] deals with KB 3-1 (MDR1^+++) cells. As to the method: as §1, §2, §3, §4, §5
In data set [3] the test system is bladder cancer cell line RT112. Put plainly: MTS cytotoxicity assay, growth inhibition, RT112. The class given is cell-based, human. The settings on record: RT112, 3 days treatment. The method, then: as §1, §2
Cells were seeded in 96-well culture plates 24 h prior to treatment. […]
A commercially available MTS assay system (Promega, Madison, USA) was used to determine growth inhibition and cell death according to the instructions of the manufacturer. […] The plate was incubated for at least 45 min at 37° C. in a humidified 5% CO2 atmosphere and the absorbance at 492 nm was measured. The absorbance values of untreated control cells on each plate were set as 100% growth and used to calculate the remaining growth of drug treated cells. […]

The conditions of data set [4]: irinotecan therapy, dose-limiting toxicity; cited from earlier work.
For data set [5], the system named is human epithelial cervical cancer cell line KB 3-1. It is filed as cell-based. As to the method: as §1, §2, §3, §4, §5
For data set [6], the system named is human colon cancer cell line LS174T. Kind of data set: MTS cytotoxicity assay, growth inhibition, LS174T. The class given is cell-based. Particulars: for IC50 (50% inhibition of cell growth): LS174T, 3 days treatment. The method, then: as §1, §2, §3, §4, §5
For data set [7] the following is noted: within the first 60 days of treatment, colorectal cancer trials; cited from earlier work.
The conditions of data set [8]: mass balance studies; cited from earlier work.
For data set [9], the system named is MRP1 mRNA. Put plainly: MRP1 mRNA content in duodenal biopsies before and after rifampicin. It is filed as in vivo, human. The settings on record: healthy volunteers.
A short description of data set [10]: Clinical study of peak plasma digoxin levels at steady state by MDR1 3435C>T genotype. The settings on record: 14 healthy volunteers, oral digoxin, p=0.006 Mann Whitney U test. It is filed as in vivo, human. An excerpt:
Furthermore, the influence of the MDR1 genotype on intestinal uptake-related pharmacokinetics of digoxin was investigated in a clinical study at the University Medical Center, Charite in Berlin. Maximal digoxin blood levels (Cmax) at steady state were correlated with the MDR1 3435C>T genotype 14 healthy volunteers after oral application of digoxin. […] (p=0.006, Mann Whitney U test) and reflects the impact of this polymorphism on digoxin pharmacokinetics.

Data set [11] relates to KB 3-1 (MDR1^+++, CYP3A5) cells. The method, then:
as §1, §2, §3, §4, §5

For irinotecan [CPT-11], the “IC50 of RT112 (MDR1, UGT1A1) compared to RT112 cells” value in data set [1] (RT112 (MDR1, UGT1A1) vs RT112, in words) is “two-times higher”. The “IC50 (50% inhibition of cell growth)” value in data set [1] came to 4 µg/mL; in data set [2] (KB 3-1 (MDR1+++), 3 days, without R-Verapamil) it was 85 µg/mL; in [3] it was 2.5 µg/mL; in data set [5] (KB 3-1, 3 days, without R-Verapamil), 5 µg/mL; in [6] it was 1.5 µg/mL. Further, the “IC50 with R-Verapamil” value amounted to 10 µg/mL in data set [2] (KB 3-1 (MDR1+++), 3 days, with R-Verapamil 10 μg/ml) and 4.5 µg/mL in data set [5] (KB 3-1, 3 days, with R-Verapamil 10 μg/ml). Besides, the “diarrhea, occurrence in patients” value in data set [4] is on record as “up to 88%”. In addition, the “increase of irinotecan toxicity-related mortality” value in [7] is on record as around 3 times. The “total dose excreted in the feces” value in data set [8] was 64%.

As for `CO[C@H]1/C=C/O[C@@]2(C)Oc3c(C)c(O)c4c(O)c(c(/C=N/N5CCN(C)CC5)c(O)c4c3C2=O)NC(=O)/C(C)=C\C=C\[C@H](C)[C@H](O)[C@@H](C)[C@@H](O)[C@@H](C)[C@H](OC(C)=O)[C@@H]1C` [rifampicin], the “effect of rifampicin treatment on MRP1 mRNA expression” value in [9] is “no effect”.

`C[C@H]1O[C@@H](O[C@H]2[C@@H](O)C[C@H](O[C@H]3[C@@H](O)C[C@H](O[C@H]4CC[C@@]5(C)[C@H](CC[C@@H]6[C@@H]5C[C@@H](O)[C@]5(C)[C@@H](C7=CC(=O)OC7)CC[C@]65O)C4)O[C@@H]3C)O[C@@H]2C)C[C@H](O)[C@@H]1O` [digoxin]: the “Maximal digoxin blood levels (Cmax) at steady state, homozygous T vs C/C MDR1 3435C>T genotype” value in data set [10] is on record as “statistically significantly different; also recorded: statistically significantly lower”.

Turning to `COc1ccc(CCN(C)CCC[C@](C#N)(c2ccc(OC)c(OC)c2)C(C)C)cc1OC` [R-Verapamil], the “effect of addition of R-Verapamil on CPT-11 and SN-38 sensitivity” value in [5] was “only marginal effects”.

Take `CCc1c2c(nc3ccc(O)cc13)-c1cc3c(c(=O)n1C2)COC(=O)[C@]3(O)CC` [SN-38, 7-ethyl-10-hydroxycamptothecin]: in [1], the “higher resistance of RT112 (MDR1, UGT1A1) relative to RT112” value stood at 19 fold and the “IC50 (50% inhibition of cell growth)” value is 0.075 µg/mL. Further, in data set [2], the “IC50 (50% inhibition of cell growth)” value is 0.2 µg/mL, the “higher sensitivity after inhibition of MDR1 transport function with R-Verapamil” value is reported as 10 fold, the “increase of IC50 relative to KB 3-1” value is “at least 8 times” and the “sensitivity with R-Verapamil” value is “as sensitive as KB 3-1 cells”. Besides, the “IC50 (50% inhibition of cell growth)” value in data set [11] was above 200 ng/mL. For the same compound, the “IC50 (50% inhibition of cell growth)” value in data set [3] worked out at 0.004 µg/mL. In data set [5], the “IC50 (50% inhibition of cell growth)” value was found to be 0.025 µg/mL and the “IC50 with R-Verapamil” value is 15 ng/m. For the same compound, the “IC50 (50% inhibition of cell growth)” value in data set [6] came to 0.005 µg/mL. The “efficacy relative to CPT-11 (growth inhibition and cell death)” value in data set [6] (stated for LS174T, RT112 and KB 3-1 together) is on record as 1000 fold.

(Values after patent publication US20050032724A1 (priority 2001, published 2005).)
